{
  "source": "ChEMBL document CHEMBL5113519",
  "about": "“Discovery of Novel Imidazo[4,5-c]quinoline Derivatives to Treat Inflammatory Bowel Disease (IBD) by Inhibiting Multiple Proinflammatory Signaling Pathways and Restoring Intestinal Homeostasis” (J Med Chem, 2022)",
  "key": {"Mus musculus [1]": {"tested_on": "Mus musculus", "assay": "Antiinflammatory activity in DSS-induced acute colitis C57BL/6 mouse model assessed as reduction in bloody stool by measuring DAI score at 1 to 3 mg/kg, po administered daily and measured upto 11 days", "type": "functional, organism-based", "details": "dose 1-3 mg/kg, time <= 11.0 day"}, "Mus musculus [2]": {"tested_on": "Mus musculus", "assay": "Antiinflammatory activity in DSS-induced acute colitis C57BL/6 mouse model assessed as reduction in weight loss by measuring DAI score at 1 to 3 mg/kg, po administered daily and measured upto 11 days", "type": "functional, organism-based", "details": "dose 1-3 mg/kg, time <= 11.0 day"}, "Mus musculus [3]": {"tested_on": "Mus musculus", "assay": "Anti-inflammatory bowl disease activity in DSS-induced acute enteritis mouse model assessed as increase in norank_f_Muribaculaceae abundance at 3 mg/kg", "type": "functional, organism-based"}, "Mus musculus [4]": {"tested_on": "Mus musculus", "assay": "Antiinflammatory activity in DSS-induced acute colitis C57BL/6 mouse model assessed as reduction in lamina propria damage in colon by measuring histopathological score at 1 to 3 mg/kg, po by H and E staining based analysis", "type": "functional, organism-based", "details": "dose 1-3 mg/kg"}, "Mus musculus [5]": {"tested_on": "Mus musculus", "assay": "Anti-inflammatory activity in TNBS induced IBD BALB/c mouse model assessed as reduction in weight by measuring disease activity index score at 1 to 5 mg/kg via oral gavage administered daily for 12 days measured daily", "type": "functional, organism-based", "details": "dose 1-5 mg/kg, time 12.0 day"}, "[6]": {"assay": "Toxicity in mouse assessed as change in body weight at 50 mg/kg measured upto 2 weeks", "type": "organism-based", "details": "in vivo, 336 h"}, "Mus musculus [7]": {"tested_on": "Mus musculus", "assay": "Antiinflammatory activity in DSS-induced acute colitis C57BL/6 mouse model assessed as reduction in inflammatory cell infiltration in colon by measuring histopathological score at 1 to 3 mg/kg, po by H and E staining based analysis", "type": "functional, organism-based", "details": "dose 1-3 mg/kg"}, "Mus musculus [8]": {"tested_on": "Mus musculus", "assay": "Anti-inflammatory bowel disease activity in DSS-induced acute enteritis mouse model assessed as decrese in bacteroides abundance at 3 mg/kg", "type": "functional, organism-based"}, "[9]": {"molecular_target": "Tyrosine-protein kinase JAK1 (Homo sapiens, UniProt P23458)", "sequence (P23458 whole entry)": "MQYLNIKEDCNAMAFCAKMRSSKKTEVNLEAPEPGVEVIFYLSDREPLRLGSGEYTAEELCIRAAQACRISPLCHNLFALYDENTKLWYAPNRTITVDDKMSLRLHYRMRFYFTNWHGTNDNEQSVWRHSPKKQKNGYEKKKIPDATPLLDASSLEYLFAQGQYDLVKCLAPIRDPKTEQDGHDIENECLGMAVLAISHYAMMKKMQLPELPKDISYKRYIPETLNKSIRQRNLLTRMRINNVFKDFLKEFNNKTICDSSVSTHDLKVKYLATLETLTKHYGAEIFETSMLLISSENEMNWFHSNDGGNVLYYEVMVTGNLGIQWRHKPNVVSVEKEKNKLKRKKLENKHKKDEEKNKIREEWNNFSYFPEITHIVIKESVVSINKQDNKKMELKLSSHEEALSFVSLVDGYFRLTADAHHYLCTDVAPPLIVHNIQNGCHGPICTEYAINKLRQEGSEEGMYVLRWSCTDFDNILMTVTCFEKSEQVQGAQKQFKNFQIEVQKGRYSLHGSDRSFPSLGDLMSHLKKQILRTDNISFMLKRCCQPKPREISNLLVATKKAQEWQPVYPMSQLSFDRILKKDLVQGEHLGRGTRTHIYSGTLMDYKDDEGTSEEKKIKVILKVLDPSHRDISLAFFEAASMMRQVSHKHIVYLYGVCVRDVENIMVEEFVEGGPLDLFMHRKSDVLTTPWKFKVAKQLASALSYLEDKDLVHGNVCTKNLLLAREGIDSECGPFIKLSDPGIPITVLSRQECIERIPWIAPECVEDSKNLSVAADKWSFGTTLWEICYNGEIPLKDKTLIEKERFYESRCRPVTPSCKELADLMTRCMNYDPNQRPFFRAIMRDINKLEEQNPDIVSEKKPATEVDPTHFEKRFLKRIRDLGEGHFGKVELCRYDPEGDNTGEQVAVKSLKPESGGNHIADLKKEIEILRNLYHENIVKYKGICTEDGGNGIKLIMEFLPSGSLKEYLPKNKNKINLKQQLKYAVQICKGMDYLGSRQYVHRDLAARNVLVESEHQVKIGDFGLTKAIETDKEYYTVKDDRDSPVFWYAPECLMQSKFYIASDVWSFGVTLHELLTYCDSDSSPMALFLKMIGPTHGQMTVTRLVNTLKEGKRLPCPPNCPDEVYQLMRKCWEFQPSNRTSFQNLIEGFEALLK", "assay": "Inhibition of JAK1 (unknown origin) using Kinase/Tyr 6 peptide as substrate incubated for 1 hrs in presence of ATP by fluorescence microplate reader analysis"}, "[10]": {"molecular_target": "T1, Tyrosine-protein kinase JAK3 (Homo sapiens, UniProt P52333)", "T1 sequence (P52333 whole entry)": "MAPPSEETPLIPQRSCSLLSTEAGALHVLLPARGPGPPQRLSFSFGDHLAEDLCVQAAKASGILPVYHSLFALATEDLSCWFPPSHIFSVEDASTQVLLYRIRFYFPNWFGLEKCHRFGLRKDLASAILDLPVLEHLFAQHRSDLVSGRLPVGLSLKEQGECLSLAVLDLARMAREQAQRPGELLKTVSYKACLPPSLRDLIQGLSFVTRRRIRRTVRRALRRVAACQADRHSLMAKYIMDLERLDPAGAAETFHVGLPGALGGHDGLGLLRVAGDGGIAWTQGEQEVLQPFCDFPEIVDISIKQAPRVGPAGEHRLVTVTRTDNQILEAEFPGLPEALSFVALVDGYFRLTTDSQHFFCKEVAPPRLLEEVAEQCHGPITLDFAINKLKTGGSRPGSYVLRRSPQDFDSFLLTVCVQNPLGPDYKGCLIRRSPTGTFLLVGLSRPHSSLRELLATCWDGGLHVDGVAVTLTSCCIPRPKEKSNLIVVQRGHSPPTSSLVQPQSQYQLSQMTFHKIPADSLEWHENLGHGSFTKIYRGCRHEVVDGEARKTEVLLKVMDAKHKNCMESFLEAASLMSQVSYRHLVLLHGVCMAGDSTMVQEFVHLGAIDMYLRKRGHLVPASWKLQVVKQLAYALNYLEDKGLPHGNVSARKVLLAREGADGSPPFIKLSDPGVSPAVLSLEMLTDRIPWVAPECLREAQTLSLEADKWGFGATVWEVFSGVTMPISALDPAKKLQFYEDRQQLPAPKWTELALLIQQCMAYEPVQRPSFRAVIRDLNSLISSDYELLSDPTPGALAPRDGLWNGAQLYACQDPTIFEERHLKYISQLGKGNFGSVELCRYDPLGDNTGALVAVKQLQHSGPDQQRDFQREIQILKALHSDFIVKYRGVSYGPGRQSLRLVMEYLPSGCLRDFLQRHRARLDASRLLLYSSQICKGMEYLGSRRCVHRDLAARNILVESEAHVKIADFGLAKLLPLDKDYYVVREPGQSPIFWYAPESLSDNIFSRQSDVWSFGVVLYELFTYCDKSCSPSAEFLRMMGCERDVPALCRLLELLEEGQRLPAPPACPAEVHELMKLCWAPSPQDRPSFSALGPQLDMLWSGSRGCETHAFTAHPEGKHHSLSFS", "description": "Inhibition of JAK3 (unknown origin) using Kinase/Tyr 6 peptide as substrate incubated for 1 hrs in presence of ATP by fluorescence microplate reader analysis"}, "THP1-Dual [11]": {"tested_on": "THP1-Dual", "assay": "Inhibition of LPS induced TNF alpha expression in human THP1-Dual cells at 1 uM incubated for 6 hrs", "type": "functional, cell-based"}, "[12]": {"assay": "Toxicity in mouse assessed as abnormal change in liver at 20 to 50 mg/kg, IG measured upto 2 weeks", "type": "organism-based", "details": "in vivo, po, 336 h, dose 20-50 mg/kg"}, "[13]": {"molecular_target": "Tyrosine-protein kinase JAK2 (Homo sapiens, UniProt O60674)", "sequence (O60674 whole entry)": "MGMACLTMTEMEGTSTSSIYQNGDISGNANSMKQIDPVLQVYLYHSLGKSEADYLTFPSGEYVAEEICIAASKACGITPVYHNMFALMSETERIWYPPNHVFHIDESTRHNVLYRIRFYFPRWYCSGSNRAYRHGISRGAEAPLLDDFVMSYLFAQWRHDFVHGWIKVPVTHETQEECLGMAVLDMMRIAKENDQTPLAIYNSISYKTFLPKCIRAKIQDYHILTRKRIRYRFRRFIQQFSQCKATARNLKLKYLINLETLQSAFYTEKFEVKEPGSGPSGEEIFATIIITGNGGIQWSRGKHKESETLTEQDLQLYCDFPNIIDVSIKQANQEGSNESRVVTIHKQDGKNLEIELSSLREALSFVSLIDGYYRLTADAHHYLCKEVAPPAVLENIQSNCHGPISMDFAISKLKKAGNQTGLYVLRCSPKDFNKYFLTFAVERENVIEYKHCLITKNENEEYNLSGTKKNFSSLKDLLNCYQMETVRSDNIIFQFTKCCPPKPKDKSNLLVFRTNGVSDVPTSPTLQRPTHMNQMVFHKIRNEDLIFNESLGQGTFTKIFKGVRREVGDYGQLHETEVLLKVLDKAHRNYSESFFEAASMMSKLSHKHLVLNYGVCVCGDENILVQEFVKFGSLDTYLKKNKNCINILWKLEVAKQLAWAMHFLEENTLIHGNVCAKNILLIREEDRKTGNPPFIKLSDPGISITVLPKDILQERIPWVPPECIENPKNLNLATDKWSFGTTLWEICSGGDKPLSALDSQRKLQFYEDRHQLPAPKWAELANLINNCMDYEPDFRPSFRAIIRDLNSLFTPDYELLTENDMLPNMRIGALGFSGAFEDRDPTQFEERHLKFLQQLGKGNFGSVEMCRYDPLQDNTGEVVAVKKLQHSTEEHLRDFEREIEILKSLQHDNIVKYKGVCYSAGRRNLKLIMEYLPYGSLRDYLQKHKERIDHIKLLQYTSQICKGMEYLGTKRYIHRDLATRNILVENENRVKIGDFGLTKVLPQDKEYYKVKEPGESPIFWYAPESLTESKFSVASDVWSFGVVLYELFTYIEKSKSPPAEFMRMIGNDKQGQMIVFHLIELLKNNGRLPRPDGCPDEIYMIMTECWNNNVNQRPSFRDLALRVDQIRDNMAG", "description": "Inhibition of JAK2 (unknown origin) using Kinase/Tyr 6 peptide as substrate incubated for 1 hrs in presence of ATP by fluorescence microplate reader analysis"}, "THP1-Dual [14]": {"tested_on": "THP1-Dual", "assay": "Downregulation of JAK/STAT in human THP1-Dual cells at 1 uM incubated for 6 hrs", "type": "functional, cell-based"}, "THP1-Dual [15]": {"tested_on": "THP1-Dual", "assay": "Downregulation of IFN-gamma in human THP1-Dual cells at 1 uM incubated for 6 hrs", "type": "functional, cell-based"}, "[16]": {"assay": "Toxicity in mouse assessed as drug tolerability at 20 to 50 mg/kg, IG measured upto 2 weeks", "type": "organism-based", "details": "in vivo, po, 336 h, dose 20-50 mg/kg"}, "Mus musculus [17]": {"tested_on": "Mus musculus", "assay": "Antiinflammatory activity in DSS-induced acute colitis C57BL/6 mouse model assessed as reduction in number of goblet cells in colon by measuring histopathological score at 1 to 3 mg/kg, po by H and E staining based analysis", "type": "functional, organism-based", "details": "dose 1-3 mg/kg"}, "Mus musculus [18]": {"tested_on": "Mus musculus", "assay": "Anti-inflammatory activity in TNBS induced IBD BALB/c mouse model assessed as reduction in bloody stool by measuring disease activity index score at 1 to 5 mg/kg via oral gavage administered daily for 12 days", "type": "functional, organism-based", "details": "dose 1-5 mg/kg, time 12.0 day"}, "THP1-Dual [19]": {"tested_on": "THP1-Dual", "assay": "Downregulation of IFN-alpha in human THP1-Dual cells at 1 uM incubated for 6 hrs", "type": "functional, cell-based"}, "[20]": {"assay": "Toxicity in mouse assessed as abnormal change in lung at 20 to 50 mg/kg, IG measured upto 2 weeks", "type": "organism-based", "details": "in vivo, po, 336 h, dose 20-50 mg/kg"}, "THP1-Dual [21]": {"tested_on": "THP1-Dual", "assay": "Anti-inflammatory activity against LPS-stimulated human THP1-Dual cells assessed as inhibition of IL-1 beta secretion incubated for 6 hrs followed by LPS stimulation by Western blot analysis", "type": "functional, cell-based", "details": "dose 0.33-3 µM, DDE = dose-dependent effect"}, "[22]": {"assay": "Toxicity in mouse assessed as abnormality in gastrointestinal tract at 20 to 50 mg/kg, IG measured upto 2 weeks", "type": "organism-based", "details": "in vivo, po, 336 h, dose 20-50 mg/kg"}, "THP1-Dual [23]": {"tested_on": "THP1-Dual", "assay": "Downregulation of unfolded protein response in human THP1-Dual cells at 1 uM incubated for 6 hrs", "type": "functional, cell-based"}, "Mus musculus [24]": {"tested_on": "Mus musculus", "assay": "Antiinflammatory activity in DSS-induced acute colitis C57BL/6 mouse model assessed as reduction in intestinal edema in colon by measuring histopathological score at 1 to 3 mg/kg, po by H and E staining based analysis", "type": "functional, organism-based", "details": "dose 1-3 mg/kg"}, "Mus musculus [25]": {"tested_on": "Mus musculus", "assay": "Antiinflammatory activity in DSS-induced acute enteritis C57BL mouse model assessed as suppression of DSS induced weight loss at 3 mg/kg, po administered daily and measured upto 11 days relative to control", "type": "functional", "details": "time <= 11 day"}},
  "note": "pIC50: −log10 of the molar value. Activity calls are given as the source filed them. The calls are words filed in the database; no cut-off is given here.",
  "data": [
    {"compound": "Cc1nc2cnc3ccc(-c4cc(Cl)c(O)c(Cl)c4)cc3c2n1C1CCN(C)CC1", "values": [
      {"measurement": "Activity", "setting": "Mus musculus [1]", "result": "Active"},
      {"measurement": "Activity", "setting": "Mus musculus [2]", "result": "Active"},
      {"measurement": "Activity", "setting": "Mus musculus [3]", "result": "Active"},
      {"measurement": "Activity", "setting": "Mus musculus [4]", "result": "Active"},
      {"measurement": "Activity", "setting": "Mus musculus [5]", "result": "Active"},
      {"measurement": "Activity", "setting": "[6]", "result": "Non-Toxic"},
      {"measurement": "Activity", "setting": "Mus musculus [7]", "result": "Active"},
      {"measurement": "Activity", "setting": "Mus musculus [8]", "result": "Active"},
      {"measurement": "pIC50", "setting": "[9]", "result": 8.05},
      {"measurement": "pIC50", "setting": "[10]", "result": 7.34},
      {"measurement": "inhibition", "setting": "THP1-Dual [11]", "result": "Active"},
      {"measurement": "Activity", "setting": "[12]", "result": "Non-Toxic"},
      {"measurement": "pIC50", "setting": "[13]", "result": 7.82},
      {"measurement": "Activity", "setting": "THP1-Dual [14]", "result": "Active"},
      {"measurement": "Activity", "setting": "THP1-Dual [15]", "result": "Active"},
      {"measurement": "Activity", "setting": "[16]", "result": "Non-Toxic"},
      {"measurement": "Activity", "setting": "Mus musculus [17]", "result": "Active"},
      {"measurement": "Activity", "setting": "Mus musculus [18]", "result": "Active"},
      {"measurement": "Activity", "setting": "THP1-Dual [19]", "result": "Active"},
      {"measurement": "Activity", "setting": "[20]", "result": "Non-Toxic"},
      {"measurement": "Activity", "setting": "THP1-Dual [21]", "result": "Dde"},
      {"measurement": "Activity", "setting": "[22]", "result": "Non-Toxic"},
      {"measurement": "Activity", "setting": "THP1-Dual [23]", "result": "Active"},
      {"measurement": "Activity", "setting": "Mus musculus [24]", "result": "Active"},
      {"measurement": "Activity", "setting": "Mus musculus [25]", "result": 10.81, "unit": "%"}
    ]}
  ]
}
